Measured values reported in patent US3954726A, “Double salts of S-adenosil-L-methionine” (Bioresearch Limited, priority 1973, dated 1976).
Like-named read-outs stand apart in the source and are kept apart here.

Tests used:
[1] = mouse, in vivo
Protocol: (§1) Sam^+.hso4^-.h2 so4 .2 ch3 c6 h4 so3 h and/or SAM^+.HSO4^-.H2 SO4.CH3 C6 H4 SO3 H. In order to indicatively determine how SAM is distributed in the tissues, S-Adenosilmethionine (Methyl C^14) was prepared. The distribution of this product in rats was studied by administering a dose of 10 mg/kg/e.v. equal to 24 μci of radioactive product. The specific activity of the product was 58 mCi/m moles. Parallel to this, an autoradiographic study was made on the mouse.

[2] = rat, in vivo, 10 mg/kg
Protocol: as §1
Distribution of SAM in some rat tissues.
The values are expressed as μgr/gr.

rabbit [3] = details: in vivo, 40 mg/kg
[4] = Clinical: metabolism of lipids (hepatosteatosis, hyperdislipidemia); assay type: in vivo, human
Excerpt: Following the information gained from the pharmacological tests, the clinical tests were orientated on morbid affections in which the following appear primitively or secondarily altered: […]

[5] = Clinical: antalgic activity in neurological frameworks and cephalalgia; assay type: in vivo, human
Protocol: The antalgic activity of SAM was also tested in different subjects with different neurological frameworks: neuritis, polyneuritis, anthralgia, sciatica, radiocolitis, torticollis.

[6] = Arthritis by adjuvant (chronic inflammation); assay type: in vivo; details: orally 20-100 mg/kg and parenterally 10-20 mg/kg
Excerpt: (§2) Ot the various tests we shall mention the most classic, namely the edema by carragenine and by egg white as a test for acute inflammation; and granuloma by cotton […] arthritis by adjuvant as a test for chronic inflammation. […] The analgesia tests were in the form of the hot plate tests and stretching by acetic acid, and the Randal and Drlitto tests in the rat.

[7] = Hepatic steatosis in rats (Handler diet, acute alcoholic intoxication, carbon tetrachloride, bromobenzene); assay type: in vivo, rat
Excerpt: This was confirmed by successive pharmacological tests.

[8] = Granuloma by cotton peelets (chronic inflammation); assay type: in vivo; details: orally 20-100 mg/kg and parenterally 10-20 mg/kg
Excerpt: as §2

[9] = Hepatic cholesterol degeneration in the rat (Ridout diet); assay type: in vivo; details: 3 weeks; for Fresh liver weight: cholesterol diet
Protocol: In studying the hepatoprotective activity we have used an experimental device which produces in the rat the so-called hepatic cholesterol degeneration (Ridout and Coll., Biochem. J. 52, 99, 1952).
In this method, by means of a suitable diet, a conspicuous increase in the total hepatic fats and hepatic cholesterol are obtained in the animals. The substances which act in the lipidic metabolism reduce or annul this increase.
The animals were divided into six groups. The first group was administered with a diet which was varied at will. The second group was administered with the basic diet of Ridout (20 g per rat per day); the other groups were administered with the same diet in the same doses but enriched with cholesterol to the extent of 0.2 g/rat/day. The treatment lasted 3 weeks.
The groups 4,5,6 were administered with SAM in the following doses: 1,2,5 mg/kg/i.p. per day.
At the end of 3 weeks all the animals were killed, the livers were withdrawn and the total fats (Best and Coll., Biochem. J. 40, 368, […]) and cholesterol (Sperry and Brand, J. Biol. Chem. 150, 315, 1943) were determined.

rabbit [10] = assay: Local tolerability of intermuscular and intravenous injection; assay type: in vivo
cat = details: in vivo, 40 mg/kg
[11] = Hot plate test (analgesia); details: rat, in vivo
Excerpt: as §2

[12] = Clinical: Parkinsons disease and Parkinsonisms, in association with Levodopa; assay type: in vivo, human
[13] = dry state
Excerpt: (§3) The figures refer to the percentage of SAM residue after the times indicated:

[14] = Clinical: depressive forms (tests of Hamilton and Wittenberg); assay type: in vivo, human; details: 20-50 mg 3-4 times per day, 5-15 days, no other therapy
[15] = Clinical: arteriosclerosis, hypoxydotic states, post-apoplectic syndromes; assay type: in vivo, human
[16] = Edema by carragenine (acute inflammation); assay type: in vivo; details: orally 20-100 mg/kg and parenterally 10-20 mg/kg
Excerpt: as §2

[17] = Edema by egg white (acute inflammation); assay type: in vivo; details: orally 20-100 mg/kg and parenterally 10-20 mg/kg
Excerpt: as §2

rats = details: rat, in vivo
[18] = Stretching by acetic acid (analgesia); details: rat, in vivo
Excerpt: as §2

[19] = Clinical: disturbances of the sleeping-waking rhythm; assay type: in vivo, human; details: 10-30 mg orally, insomnia
[20] = assay type: in vivo, human
[21] = Clinical: hypoprotidemias, disprotidemias, hepatopathias, cyrrotic states, malabsorption; assay type: in vivo, human; details: 20-200 mg per day
Protocol: 2. Hundreds of subjects were treated clinically affected with: secondary hypoprotidemias and disprotidemias; persistent and aggressive cronic hepatopathias; precyrrotic and cyrrotic states; malabsorption syndromes, protide dispersing syndromes.

[22] = Randal and Drlitto test (analgesia); assay type: in vivo; details: rat
Excerpt: as §2

physchem [23] = assay type: physicochemical
rabbits = details: rabbit, in vivo
man = assay: Tolerability in young volunteer healthy subjects (pressure, pulse, respiration, ECG, hemopoietic, hepatic and renal); assay type: in vivo
physchem [24] = details: dry state, percentage of SAM residue
Excerpt: as §3

[25] = hyperdislipidemia in the uncompensated stage
[26] = intermuscular, intravenous or oral

C[S+](CC[C@H](N)C(=O)O)C[C@H]1O[C@@H](n2cnc3c(N)ncnc32)[C@H](O)[C@@H]1O (stereo partly shown) [SAM, SAM disulphate di-p-toluenesulphonate]
distribution to the tissues [1]: distributed very rapidly to all the tissues
distribution to the tissues [2]: distributed very rapidly to all the tissues
change in carotid pressure, cardiac and respiratory frequency or electrocardiac trace (rabbit [3]): does not cause any change
hypocholesterolemising and hypolipemising action ([4]; about 20-30 mg administered 2-3 times per day): proportional to the dose
hepatic lipids in hepatosteatosis ([4]; bioptic examination, even after 60 days from the end of treatment): rapid fall in the hepatic lipids
altered β/α lipoproteic ratios [4, 25]: normalises the altered β/α lipoproteic ratios
total cholesterolemia and hypertriglyceridemia [4, 25]: marked fall
antalgic effect in neurological frameworks ([5]; 15 mg twice a day intermuscular or 30-50 mg 3-4 times per day orally): available and efficient from the first day of administration
recurring and resistant cephalalgia ([5]; orally in masticable tablets): Analogous results
antiinflammatory activity, arthritis by adjuvant [6]: active
accumulation of lipids at the hepatocite level [7]: significantly reduced the accumulation of lipids
antiinflammatory activity, granuloma by cotton peelets [8]: active
protection from hepatic cholesterol degeneration ([9]; 5 mg/kg): completely protected
protection from hepatic cholesterol degeneration ([9]; 1-2 mg/kg/i.p.): poorly protected
Fresh liver weight ([9]; Batch IV, SAM 1 mg/kg/i.p. per day): 17 g
Fresh liver weight ([9]; Batch V, SAM 2 mg/kg/i.p. per day): 16 g
Fresh liver weight ([9]; Batch VI, SAM 5 mg/kg/i.p. per day): 16 g
local tolerability (rabbit [10]; intermuscular injection, repeated over 180 days): excellent
local tolerability (rabbit [10]; intravenous, marginal vein of the auricular pavillon, rabbit): excellent
change in carotid pressure, cardiac and respiratory frequency or electrocardiac trace (cat): does not cause any change
analgesic activity, hot plate [11]: active
Parkinson tremor ([12]; 10-40 mg per day with Levodopa): favourable modifications
akinesia and rigidity ([12]; 10-40 mg per day with Levodopa, versus Levodopa only): statistically more significant improvement
Levodopa side effects ([12]; 10-40 mg per day with Levodopa, nausea, vomit, inappetite, hypotension, asthenia, cephalea, hypersudoration, insomnia): significantly blocks
Levodopa-dependent psychic disturbances ([12]; with Levodopa): distinctly improves
percentage of SAM residue ([13]; 720 h): 100.1%
percentage of SAM residue ([13]; 1440 h): 99.9%
remission of the main parameters for the diagnosis of depressive forms [14]: significant remission
recovery of functions in clear hypoxydotic states ([15]; hypoxydotic states): very quick and statistically significant
symptomatology of arteriosclerosis ([15]; intramuscular, intravenous or phleboclysis, 20-40 mg 3-4 times per day): very favourable modification of the sumptomatology
improvement of the clinical framework in post-apoplectic syndromes ([15]; post-apoplectic syndromes): greater rapidity was found in the improvement of the clinical framework
antiinflammatory activity, edema by carragenine [16]: active
antiinflammatory activity, edema by egg white [17]: active
tetratogenic actions or malformations (rats): no tetratogenic actions were encountered or any malformations in the embryons or terminal feti
analgesic activity, stretching by acetic acid [18]: active
altered sleeping-waking ratios [19]: considerably improve
activity in osteoarthritic forms ([20]; 30 mg twice a day i.m. or i.v., and 30-50 mg orally 4 times per day): active in all osteoarthritic forms treated
muscular spasm, limitation of movement, localised pain, rigidity ([20]; after 7 days of treatment, versus placebo): influenced in a statistically significant manner
therapeutic efficiency compared with indomethacin ([20]; double blind study): equal to indomethacin
concealed blood in the feces ([20]; human, in vivo): never showed any modification
gastric pyrosis ([20]; human, in vivo): No case
subjective symptomology and general objective conditions [21]: often very important improvement
tests of hepatic functionality [21]: normalizing of all the tests of hepatic functionality
albumin amount [21, 26]: an increase in the albumin amount
altered percentage ratios between the electrophoretic fractions of the serum [21, 26]: tendency to normalise
total protidemia [21, 26]: statistically significant increase
analgesic activity, Randal and Drlitto test [22]: active
hygroscopicity (physchem [23]; crystalline salt): not very hygroscopic
solubility (physchem [23]; water): > 200 mg/mL
tetratogenic actions or malformations (rabbits): no tetratogenic actions were encountered or any malformations in the embryons or terminal feti
electrocardiograph trace (PQ interval, ST section, extrasistol) (man; 30" to 20' from administration): does not show any variations
hemopoietic apparatus, hepatic and renal operation (man; man): no variations which were statistically significant from normal
minimum and maximum pressure, pulse and respiratory frequency (man; rapid intravenous or phleboclysis, 10-300 mg, 1 minute to 24 hours): does not show any variation from normal values
remaining at 2880 h (physchem [24]): 100%
remaining at 4320 h (physchem [24]): 100%
